Measured values taken from paper PMC12649549, “Sequence Permutation Generated Lysine and Tryptophan-Rich Antimicrobial Peptides with Enhanced Therapeutic Index” (Antibiotics, 2025).
Like-named read-outs stand apart in the source and are kept apart here.

How the values were obtained:
[1] = test system: Both Gram-positive and -negative bacteria; assay: Geometric mean MIC, therapeutic index and fold changes of MIC, whole panel of strains; type: cell-based; conditions: for GM G−/+ (geometric mean of the MIC values): Both Gram-positive and -negative bacteria, MH broth, MIC >50 µg/mL counted as 100 µg/mL; for Therapeutic Index (TI) G−/+: HC10/GM, both Gram-positive and -negative bacteria
Outline: (§1)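 Selectivity index derived from human red blood cell HC10 relative to geometric mean MIC. Inoculum was 5 × 10^5 CFU/mL in Müller-Hinton or modified LYM broth, and each experiment was repeated independently three times.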

[2] = test system: Gram-positive bacteria; assay: Geometric mean MIC and therapeutic index, Gram-positive bacteria; type: cell-based; conditions: Gram-positive bacteria; for GM G+ (geometric mean of the MIC values): MH broth, MIC >50 µg/mL counted as 100 µg/mL; for Therapeutic Index (TI) G+: HC10/GM
Outline: as §1

[3] = test system: S. aureus ATCC 33593
Outline: (§2)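 Salt and pH tolerance was assessed by determining MICs in LYM medium containing 50–300 mM NaCl, 0.5–2.5 mM MgCl2, or at pH 4.5–6.5, alongside MH broth. The inoculum was 5 × 10^5 CFU/mL.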

[4] = test system: S. aureus ATCC 33591
Outline: as §2

[5] = test system: Escherichia coli (ATCC 25922)
Outline: as §2

[6] = test system: S. aureus ATCC 25923
Outline: as §2

[7] = test system: A. baumannii 14B0091 (Acinetobacter sp., BCRC number 14B0091)
Outline: as §2

[8] = test system: A. baumannii 14B0097 (Acinetobacter sp., BCRC number 14B0097)
Outline: as §2

[9] = LYM broth, 0 mM NaCl, 16 h, 37 °C
[10] = LYM broth, 50 mM NaCl, 16 h, 37 °C
[11] = LYM broth, 100 mM NaCl, 16 h, 37 °C
[12] = LYM broth, 200 mM (NaCl), 16 h, 37 °C
[13] = LYM broth, 300 mM (NaCl), 16 h, 37 °C
[14] = MH broth, 5 × 10^5 CFU/mL, 16 h, 37 °C, repeated three times

For Ac-WLAKKKKWRKWLK-NH2 [Peptide W5K08], the “GM G−/+ (geometric mean of the MIC values)” value [1] was 61.6 µg/mL, the “Therapeutic Index (TI) G−/+” value [1] was 1.8 and the “GM G+ (geometric mean of the MIC values)” value [2] was 75.8 µg/mL. The “Therapeutic Index (TI) G+” value [2] was 1.4, the MIC [3, 9] was 25 µg/mL and the MIC ([3]; LYM broth, 0.5 mM MgCl2) was 25 µg/mL. It also gave an MIC ([3]; LYM broth, 1.5 mM MgCl2) of 25 µg/mL, an MIC ([3]; LYM broth, 2.5 mM MgCl2) of 50 µg/mL and an MIC [3, 10] of 50 µg/mL. For the same substance, the MIC [3, 11] was 50 µg/mL, the MIC [3, 12] was >50 µg/mL and the MIC [3, 13] was >50 µg/mL. The MIC ([3]; LYM broth, pH 4.5) was 25 µg/mL, the MIC ([3]; LYM broth, pH 5.5) was 12.5 µg/mL and the MIC ([3]; LYM broth, pH 6.5) was 12.5 µg/mL. The MIC [3, 14] was >50 µg/mL, the MIC [4, 9] was 25 µg/mL and the MIC ([4]; LYM broth, 0.5 mM MgCl2) was 25 µg/mL. It also gave an MIC ([4]; LYM broth, 1.5 mM MgCl2) of 50 µg/mL, an MIC ([4]; LYM broth, 2.5 mM MgCl2) of 50 µg/mL and an MIC [4, 10] of 50 µg/mL. The MIC [4, 11] was 50 µg/mL, the MIC [4, 12] was 50 µg/mL and the MIC [4, 13] was >50 µg/mL. It also gave an MIC ([4]; LYM broth, pH 4.5) of 25 µg/mL, an MIC ([4]; LYM broth, pH 5.5) of 25 µg/mL and an MIC ([4]; LYM broth, pH 6.5) of 12.5 µg/mL. The MIC [4, 14] was >50 µg/mL, the MIC [5, 9] was 3.13 µg/mL and the MIC ([5]; LYM broth, 0.5 mM MgCl2) was 6.25 µg/mL. The MIC ([5]; LYM broth, 1.5 mM MgCl2) was 6.25 µg/mL, the MIC ([5]; LYM broth, 2.5 mM MgCl2) was 6.25 µg/mL and the MIC [5, 10] was 12.5 µg/mL. For the same substance, the MIC [5, 11] was 12.5 µg/mL, the MIC [5, 12] was 50 µg/mL and the MIC [5, 13] was >50 µg/mL. It also gave an MIC ([5]; LYM broth, pH 4.5) of 3.13 µg/mL, an MIC ([5]; LYM broth, pH 5.5) of 3.13 µg/mL and an MIC ([5]; LYM broth, pH 6.5) of 3.13 µg/mL. For the same substance, the MIC [5, 14] was 50 µg/mL, the MIC [6, 9] was 1.56 µg/mL and the MIC ([6]; LYM broth, 0.5 mM MgCl2) was 3.13 µg/mL. The MIC ([6]; LYM broth, 1.5 mM MgCl2) was 6.25 µg/mL, the MIC ([6]; LYM broth, 2.5 mM MgCl2) was 6.25 µg/mL and the MIC [6, 10] was 3.13 µg/mL. The MIC [6, 11] was 12.5 µg/mL, the MIC [6, 12] was 50 µg/mL and the MIC [6, 13] was >50 µg/mL. It also gave an MIC ([6]; LYM broth, pH 4.5) of 3.13 µg/mL, an MIC ([6]; LYM broth, pH 5.5) of 3.13 µg/mL and an MIC ([6]; LYM broth, pH 6.5) of 1.56 µg/mL. For the same substance, the MIC [6, 14] was 25 µg/mL, the MIC [7, 9] was 3.13 µg/mL and the MIC ([7]; LYM broth, 0.5 mM MgCl2) was 3.13 µg/mL. It also gave an MIC ([7]; LYM broth, 1.5 mM MgCl2) of 3.13 µg/mL, an MIC ([7]; LYM broth, 2.5 mM MgCl2) of 6.25 µg/mL and an MIC [7, 10] of 6.25 µg/mL. The MIC [7, 11] was 25 µg/mL, the MIC [7, 12] was >50 µg/mL and the MIC [7, 13] was >50 µg/mL. It also gave an MIC ([7]; LYM broth, pH 4.5) of 6.25 µg/mL, an MIC ([7]; LYM broth, pH 5.5) of 3.13 µg/mL and an MIC ([7]; LYM broth, pH 6.5) of 3.13 µg/mL. For the same substance, the MIC [7, 14] was >50 µg/mL, the MIC [8, 9] was 3.13 µg/mL and the MIC ([8]; LYM broth, 0.5 mM MgCl2) was 3.13 µg/mL. The MIC ([8]; LYM broth, 1.5 mM MgCl2) was 3.13 µg/mL, the MIC ([8]; LYM broth, 2.5 mM MgCl2) was 6.25 µg/mL and the MIC [8, 10] was 6.25 µg/mL. For the same substance, the MIC [8, 11] was 12.5 µg/mL, the MIC [8, 12] was 50 µg/mL and the MIC [8, 13] was >50 µg/mL. The MIC ([8]; LYM broth, pH 4.5) was 6.25 µg/mL, the MIC ([8]; LYM broth, pH 5.5) was 3.13 µg/mL and the MIC ([8]; LYM broth, pH 6.5) was 3.13 µg/mL. The MIC [8, 14] was 25 µg/mL.

In the case of Ac-LAKKKKWRKWLKW-NH2 [Peptide W5K09], the “GM G−/+ (geometric mean of the MIC values)” value [1] is reported as 50.0 µg/mL, the “Therapeutic Index (TI) G−/+” value [1] is reported as 2.2 and the “GM G+ (geometric mean of the MIC values)” value [2] is reported as 75.8 µg/mL. For the same substance, the “Therapeutic Index (TI) G+” value [2] was 1.4, the MIC [3, 9] was 25 µg/mL and the MIC ([3]; LYM broth, 0.5 mM MgCl2) was 25 µg/mL. For the same substance, the MIC ([3]; LYM broth, 1.5 mM MgCl2) was 25 µg/mL, the MIC ([3]; LYM broth, 2.5 mM MgCl2) was 50 µg/mL and the MIC [3, 10] was 25 µg/mL. For the same substance, the MIC [3, 11] was 50 µg/mL, the MIC [3, 12] was >50 µg/mL and the MIC [3, 13] was >50 µg/mL. For the same substance, the MIC ([3]; LYM broth, pH 4.5) was 25 µg/mL, the MIC ([3]; LYM broth, pH 5.5) was 25 µg/mL and the MIC ([3]; LYM broth, pH 6.5) was 12.5 µg/mL. The MIC [3, 14] was >50 µg/mL, the MIC [4, 9] was 25 µg/mL and the MIC ([4]; LYM broth, 0.5 mM MgCl2) was 25 µg/mL. The MIC ([4]; LYM broth, 1.5 mM MgCl2) was 50 µg/mL, the MIC ([4]; LYM broth, 2.5 mM MgCl2) was 50 µg/mL and the MIC [4, 10] was 25 µg/mL. For the same substance, the MIC [4, 11] was 50 µg/mL, the MIC [4, 12] was >50 µg/mL and the MIC [4, 13] was >50 µg/mL. For the same substance, the MIC ([4]; LYM broth, pH 4.5) was 25 µg/mL, the MIC ([4]; LYM broth, pH 5.5) was 12.5 µg/mL and the MIC ([4]; LYM broth, pH 6.5) was 12.5 µg/mL. The MIC [4, 14] was >50 µg/mL, the MIC [5, 9] was 6.25 µg/mL and the MIC ([5]; LYM broth, 0.5 mM MgCl2) was 6.25 µg/mL. It also gave an MIC ([5]; LYM broth, 1.5 mM MgCl2) of 12.5 µg/mL, an MIC ([5]; LYM broth, 2.5 mM MgCl2) of 12.5 µg/mL and an MIC [5, 10] of 12.5 µg/mL. The MIC [5, 11] was 25 µg/mL, the MIC [5, 12] was 50 µg/mL and the MIC [5, 13] was >50 µg/mL. The MIC ([5]; LYM broth, pH 4.5) was 6.25 µg/mL, the MIC ([5]; LYM broth, pH 5.5) was 3.13 µg/mL and the MIC ([5]; LYM broth, pH 6.5) was 3.13 µg/mL. It also gave an MIC [5, 14] of 25 µg/mL, an MIC [6, 9] of 3.13 µg/mL and an MIC ([6]; LYM broth, 0.5 mM MgCl2) of 3.13 µg/mL. For the same substance, the MIC ([6]; LYM broth, 1.5 mM MgCl2) was 6.25 µg/mL, the MIC ([6]; LYM broth, 2.5 mM MgCl2) was 6.25 µg/mL and the MIC [6, 10] was 6.25 µg/mL. The MIC [6, 11] was 12.5 µg/mL, the MIC [6, 12] was 50 µg/mL and the MIC [6, 13] was >50 µg/mL. For the same substance, the MIC ([6]; LYM broth, pH 4.5) was 6.25 µg/mL, the MIC ([6]; LYM broth, pH 5.5) was 3.13 µg/mL and the MIC ([6]; LYM broth, pH 6.5) was 1.56 µg/mL. For the same substance, the MIC [6, 14] was 25 µg/mL, the MIC [7, 9] was 1.56 µg/mL and the MIC ([7]; LYM broth, 0.5 mM MgCl2) was 3.13 µg/mL. It also gave an MIC ([7]; LYM broth, 1.5 mM MgCl2) of 3.13 µg/mL, an MIC ([7]; LYM broth, 2.5 mM MgCl2) of 3.13 µg/mL and an MIC [7, 10] of 6.25 µg/mL. The MIC [7, 11] was 12.5 µg/mL, the MIC [7, 12] was 50 µg/mL and the MIC [7, 13] was >50 µg/mL. It also gave an MIC ([7]; LYM broth, pH 4.5) of 6.25 µg/mL, an MIC ([7]; LYM broth, pH 5.5) of 3.13 µg/mL and an MIC ([7]; LYM broth, pH 6.5) of 1.56 µg/mL. For the same substance, the MIC [7, 14] was 50 µg/mL, the MIC [8, 9] was 3.13 µg/mL and the MIC ([8]; LYM broth, 0.5 mM MgCl2) was 3.13 µg/mL. For the same substance, the MIC ([8]; LYM broth, 1.5 mM MgCl2) was 3.13 µg/mL, the MIC ([8]; LYM broth, 2.5 mM MgCl2) was 3.13 µg/mL and the MIC [8, 10] was 3.13 µg/mL. The MIC [8, 11] was 12.5 µg/mL, the MIC [8, 12] was 50 µg/mL and the MIC [8, 13] was >50 µg/mL. The MIC ([8]; LYM broth, pH 4.5) was 6.25 µg/mL, the MIC ([8]; LYM broth, pH 5.5) was 3.13 µg/mL and the MIC ([8]; LYM broth, pH 6.5) was 1.56 µg/mL. For the same substance, the MIC [8, 14] was 25 µg/mL.
